The first test concerns the target T1, Alpha glucosidase (Homo sapiens, UniProt O43451+P10253+P14410+Q2M2H8). Briefly: Inhibition of alpha-glucosidase (unknown origin) using p-nitrophenyl-alpha-d-glucopyranoside as substrate preincubated for 5 mins followed by substrate addition measured after 30 mins. It counts as protein assay.
In the case of `Cc1cs/c(=N\C(=O)c2ccco2)n1-c1cc(Cl)c(Cl)cc1Cl`, the IC50 lay in the range of 100 to 150 nM.
In turn, `Cc1cs/c(=N\C(=O)c2ccccc2Cl)n1-c1cc(Cl)c(Cl)cc1Cl` displayed a concentration for half-maximal inhibition (IC50) of 100 to 150 nM.
Compound `Cc1cs/c(=N\C(=O)c2cc3ccccc3oc2=O)n1-c1cc(Cl)c(Cl)cc1Cl` registered an IC50 of 100 to 150 nM.
In turn, `Cc1cccc(C(=O)/N=c2\scc(C)n2-c2cc(Cl)c(Cl)cc2Cl)c1` came in with an IC50 of 100 to 150 nM.
In turn, `COc1ccc(C(=O)/N=c2\scc(C)n2-c2cc(Cl)c(Cl)cc2Cl)cc1` registered an IC50 of 100 to 150 nM.

Another test concerns the target T1, Alpha glucosidase. Nature of the test: Inhibition of alpha-glucosidase (unknown origin) using p-nitro phenyl glucopyranoside as substrate preincubated for 5 mins followed by substrate addition measured after 30 mins. Type of test: protein assay.
`O=c1cc(-c2nn(C(Nc3ccc(-c4ccc(NC(c5ccc([N+](=O)[O-])cc5)n5nc(-c6cc7ccccc7oc6=O)oc5=S)cc4)cc3)c3ccc([N+](=O)[O-])cc3)c(=S)o2)c2ccccc2o1` (configuration not stated) displayed a half-inhibitory concentration (IC50) of 70 to 760 nM.
As to `COc1cccc(C(Nc2ccc(NC(c3cccc(OC)c3)n3nc(-c4cc(=O)oc5ccccc45)oc3=S)cc2)n2nc(-c3cc4ccccc4oc3=O)oc2=S)c1` (configuration not stated), the IC50 is 70 to 760 nM.
`O=c1cc(-c2nn(C(Nc3ccc(NC(c4ccc(Cl)cc4Cl)n4nc(-c5cc6ccccc6oc5=O)oc4=S)cc3)c3ccc(Cl)cc3Cl)c(=S)o2)c2ccccc2o1` (configuration not stated) had an IC50 of 70 to 760 nM.
In turn, `O=c1oc2ccccc2cc1-c1nn(C(Nc2ccc(Oc3ccc(NC(c4ccc(Cl)cc4Cl)n4nc(-c5cc6ccccc6oc5=O)oc4=S)cc3)cc2)c2ccc(Cl)cc2Cl)c(=S)o1` (configuration not stated) came in with a half-inhibitory concentration (IC50) of 70 to 760 nM.
Consider `O=c1oc2ccccc2cc1-c1nn(C(Nc2ccc(Oc3ccc(NC(c4ccc(Cl)cc4)n4nc(-c5cc6ccccc6oc5=O)oc4=S)cc3)cc2)c2ccc(Cl)cc2)c(=S)o1` (configuration not stated), for which the IC50 lay within 70 to 760 nM.
Regarding `CN(C)c1ccc(C(Nc2ccc(Oc3ccc(NC(c4ccc(N(C)C)cc4)n4nc(-c5cc6ccccc6oc5=O)oc4=S)cc3)cc2)n2nc(-c3cc4ccccc4oc3=O)oc2=S)cc1` (configuration not stated), the 50% inhibitory concentration (IC50) is 70 to 760 nM.
Compound `O=c1cc(-c2nn(C(Nc3ccc(NC(c4cccc(Cl)c4)n4nc(-c5cc6ccccc6oc5=O)oc4=S)cc3)c3cccc(Cl)c3)c(=S)o2)c2ccccc2o1` (configuration not stated) returned an IC50 of 70 to 760 nM.
Turning to `Cc1ccc(C(Nc2ccc(-c3ccc(NC(c4ccc(C)cc4)n4nc(-c5cc(=O)oc6ccccc56)oc4=S)cc3)cc2)n2nc(-c3cc4ccccc4oc3=O)oc2=S)cc1` (configuration not stated), the IC50 is 70 to 760 nM.
For the compound `O=c1cc(-c2nn(C(Nc3ccc(NC(c4ccc(F)cc4)n4nc(-c5cc6ccccc6oc5=O)oc4=S)cc3)c3ccc(F)cc3)c(=S)o2)c2ccccc2o1` (configuration not stated), the IC50 was in the range of 70 to 760 nM.
Still for that read-out and setting: then `O=c1oc2ccccc2cc1-c1nn(C(Nc2ccc(Oc3ccc(NC(c4ccc([N+](=O)[O-])cc4)n4nc(-c5cc6ccccc6oc5=O)oc4=S)cc3)cc2)c2ccc([N+](=O)[O-])cc2)c(=S)o1` (configuration not stated), with 70 to 760 nM.
Compound `CN(C)c1ccc(C(Nc2ccc(NC(c3ccc(N(C)C)cc3)n3nc(-c4cc(=O)oc5ccccc45)oc3=S)cc2)n2nc(-c3cc4ccccc4oc3=O)oc2=S)cc1` (configuration not stated) gave an IC50 of 70 to 760 nM.
Take `O=c1cc(-c2nn(C(Nc3ccc(NC(c4ccc([N+](=O)[O-])cc4)n4nc(-c5cc6ccccc6oc5=O)oc4=S)cc3)c3ccc([N+](=O)[O-])cc3)c(=S)o2)c2ccccc2o1` (configuration not stated): the IC50 is 70 to 760 nM.
Compound `O=c1cc(-c2nn(C(Nc3ccc(NC(c4ccc(Cl)cc4)n4nc(-c5cc6ccccc6oc5=O)oc4=S)cc3)c3ccc(Cl)cc3)c(=S)o2)c2ccccc2o1` (configuration not stated) registered an IC50 of 70 to 760 nM.
For `O=c1cc(-c2nn(C(Nc3ccc(-c4ccc(NC(c5ccc(Br)cc5)n5nc(-c6cc7ccccc7oc6=O)oc5=S)cc4)cc3)c3ccc(Br)cc3)c(=S)o2)c2ccccc2o1` (configuration not stated), the IC50 is 70 to 760 nM.
The compound `O=c1oc2ccccc2cc1-c1nn(C(Nc2ccc(Oc3ccc(NC(c4ccc(Br)cc4)n4nc(-c5cc6ccccc6oc5=O)oc4=S)cc3)cc2)c2ccc(Br)cc2)c(=S)o1` (configuration not stated) yielded an IC50 of 70 to 760 nM.
Same read-out and setting: in the case of `COc1cccc(C(Nc2ccc(-c3ccc(NC(c4cccc(OC)c4)n4nc(-c5cc(=O)oc6ccccc56)oc4=S)cc3)cc2)n2nc(-c3cc4ccccc4oc3=O)oc2=S)c1` (configuration not stated) it was 70 to 760 nM; in that of `Cc1ccc(C(Nc2ccc(NC(c3ccc(C)cc3)n3nc(-c4cc(=O)oc5ccccc45)oc3=S)cc2)n2nc(-c3cc4ccccc4oc3=O)oc2=S)cc1` (configuration not stated), 70 to 760 nM.
In turn, `O=c1cc(-c2nn(C(Nc3ccc(-c4ccc(NC(c5ccc(Cl)cc5Cl)n5nc(-c6cc7ccccc7oc6=O)oc5=S)cc4)cc3)c3ccc(Cl)cc3Cl)c(=S)o2)c2ccccc2o1` (configuration not stated) yielded an IC50 of 70 to 760 nM.
Compound `O=c1cc(-c2nn(C(Nc3ccc(-c4ccc(NC(c5cccc(Br)c5)n5nc(-c6cc7ccccc7oc6=O)oc5=S)cc4)cc3)c3cccc(Br)c3)c(=S)o2)c2ccccc2o1` (configuration not stated) registered an IC50 of 70 to 760 nM.
As to `Cc1ccc(C(Nc2ccc(Oc3ccc(NC(c4ccc(C)cc4)n4nc(-c5cc6ccccc6oc5=O)oc4=S)cc3)cc2)n2nc(-c3cc4ccccc4oc3=O)oc2=S)cc1` (configuration not stated), the IC50 fell in the range of 70 to 760 nM.
Consider `O=c1cc(-c2nn(C(Nc3ccc(-c4ccc(NC(c5ccc(Cl)cc5)n5nc(-c6cc7ccccc7oc6=O)oc5=S)cc4)cc3)c3ccc(Cl)cc3)c(=S)o2)c2ccccc2o1` (configuration not stated), for which the IC50 fell in the range of 70 to 760 nM.

Another test concerns the target T1, Alpha glucosidase. Nature of the test: Inhibition of alpha-glucosidase (unknown origin) using pNPG as substrate preincubated for 10 mins followed by substrate addition measured after 30 mins. Type of test: protein assay.
Compound `COc1ccc(/C=N/NC(=O)c2cc3ccccc3[nH]2)c(I)c1O` came in with a half-inhibitory concentration (IC50) of 2.3 to 226 µM.
For `Brc1ccc(-n2c(-c3c(-c4cccc(Br)c4)[nH]c4ccccc34)nc(-c3ccccc3)c2-c2ccccc2)cc1`, the IC50 was 8.3 to 98 µM.
On the same count and under the same terms, in the case of `O=C(N/N=C/c1cc(O)cc(O)c1)c1cc2ccccc2[nH]1` it was 2.3 to 226 µM; in that of `Fc1ccc2[nH]c(-c3ccccc3)c(-c3nc(-c4ccccc4)c(-c4ccccc4)n3-c3ccccc3)c2c1`, 8.3 to 98 µM.
In turn, `COc1cc(/C=N/NC(=O)c2cc3ccccc3[nH]2)ccc1O` gave an IC50 of 2.3 to 226 µM.
The same measure, in the same setting: in the case of `O=C(N/N=C/c1c(O)cc(O)cc1O)c1cc2ccccc2[nH]1` it was 2.3 to 226 µM.
Compound `O=C(N/N=C/c1ccc(Cl)cc1)c1cc2ccccc2[nH]1` yielded an IC50 of 2.3 to 226 µM.
For `O=C(N/N=C/c1cc(O)ccc1O)c1cc2ccccc2[nH]1`, the IC50 was in the range of 2.3 to 226 µM.
`COc1ccc(/C=N/NC(=O)c2cc3ccccc3[nH]2)cc1O` returned an IC50 of 2.3 to 226 µM.
Turning to `CC(=O)Nc1ccc(-n2c(-c3c(-c4ccccc4)[nH]c4ccc(F)cc34)nc(-c3ccccc3)c2-c2ccccc2)cc1`, the IC50 was 8.3 µM.
Compound `COc1ccc(-n2c(-c3c(-c4cccc(Br)c4)[nH]c4ccccc34)nc(-c3ccccc3)c2-c2ccccc2)cc1` showed an IC50 of 8.3 to 98 µM.
Regarding `Fc1ccc2[nH]c(-c3ccccc3)c(-c3nc(-c4ccccc4)c(-c4ccccc4)n3-c3cccc(Cl)c3)c2c1`, the IC50 lay in the range of 8.3 to 98 µM.
Same read-out and setting: then `O=C(N/N=C/c1ccc(O)c(O)c1)c1cc2ccccc2[nH]1`, with 2.3 to 226 µM; and `O=C(N/N=C/c1ccc(Br)c(F)c1)c1cc2ccccc2[nH]1`, with 2.3 to 226 µM.
Consider `COc1ccc(-n2c(-c3c(-c4ccc(Cl)cc4)[nH]c4ccc(Cl)cc34)nc(-c3ccccc3)c2-c2ccccc2)cc1`, for which the IC50 is 8.3 to 98 µM.
Turning to `O=C(N/N=C/c1cccc(O)c1O)c1cc2ccccc2[nH]1`, the IC50 lay in the range of 2.3 to 226 µM.
The same measure, in the same setting: in the case of `Clc1cccc(-c2[nH]c3ccccc3c2-c2nc(-c3ccccc3)c(-c3ccccc3)n2-c2ccccc2)c1` it was 8.3 to 98 µM; in that of `COc1ccc(O)c(/C=N/NC(=O)c2cc3ccccc3[nH]2)c1`, 2.3 to 226 µM.
Compound `O=C(N/N=C/c1cc(O)c(O)c(O)c1)c1cc2ccccc2[nH]1` showed a half-inhibitory concentration (IC50) of 2.3 µM.
`O=C(N/N=C/c1ccc(O)cc1)c1cc2ccccc2[nH]1` had an IC50 of 2.3 to 226 µM.
As for `FC(F)(F)c1ccc(-c2[nH]c3ccccc3c2-c2nc(-c3ccccc3)c(-c3ccccc3)n2-c2ccccc2)cc1`, the IC50 fell in the range of 8.3 to 98 µM.
As to `O=C(N/N=C/c1ccccc1O)c1cc2ccccc2[nH]1`, the 50% inhibitory concentration (IC50) fell in the range of 2.3 to 226 µM.

The next test has as its target T1, Alpha glucosidase. Nature of the test: Inhibition of alpha-glucosidase (unknown origin) using p-nitrophenyl-alpha-d-glucopyranoside as substrate preincubated for 10 mins followed by substrate addition measured after 30 mins. Type of test: protein assay.
For the compound `O=C(NNC(=S)Nc1cccc([N+](=O)[O-])c1)c1ccc(-c2nnc(-c3ccccc3Cl)o2)cc1`, the IC50 was in the range of 400 to 38000 nM.
The compound `COc1cccc(NC(=S)NNC(=O)c2ccc(-c3nnc(-c4ccccc4Cl)o3)cc2)c1` displayed an IC50 of 400 to 38000 nM.
For `COc1ccccc1NC(=S)NNC(=O)c1ccc(-c2nnc(-c3ccccc3Cl)o2)cc1`, the IC50 was 400 to 38000 nM.
In turn, `CCOC(=O)C1=C(Nc2cccc(Cl)c2)C[C@@H](c2ccc(Cl)cc2)N(c2cccc(Cl)c2)[C@@H]1c1ccc(Cl)cc1` returned an IC50 of 2300 to 29000 nM.
For the compound `O=C(NNC(=S)Nc1ccc(Br)cc1)c1ccc(-c2nnc(-c3ccccc3Cl)o2)cc1`, the IC50 lay in the range of 400 to 38000 nM.
Consider `CCOC(=O)C1=C(Nc2cccc([N+](=O)[O-])c2)C[C@@H](c2ccc(C)cc2)N(c2cccc([N+](=O)[O-])c2)[C@@H]1c1ccc(C)cc1`, for which the IC50 was 2300 to 29000 nM.
Regarding `O=C(NNC(=S)Nc1ccccc1F)c1ccc(-c2nnc(-c3ccccc3Cl)o2)cc1`, the IC50 is 400 nM.
For the compound `O=C(NNC(=S)Nc1ccccc1Br)c1ccc(-c2nnc(-c3ccccc3Cl)o2)cc1`, the IC50 was in the range of 400 to 38000 nM.
Regarding `O=C(NNC(=S)Nc1ccc(F)cc1)c1ccc(-c2nnc(-c3ccccc3Cl)o2)cc1`, the IC50 was 400 to 38000 nM.
`O=C(NNC(=S)Nc1ccccc1Cl)c1ccc(-c2nnc(-c3ccccc3Cl)o2)cc1` displayed an IC50 of 700 nM. In other words, the sub-micromolar range.
Consider `O=C(NNC(=S)Nc1ccc([N+](=O)[O-])cc1)c1ccc(-c2nnc(-c3ccccc3Cl)o2)cc1`, for which the IC50 lay within 400 to 38000 nM.
Consider `O=C(NNC(=S)Nc1ccc(Cl)c(Cl)c1)c1ccc(-c2nnc(-c3ccccc3Cl)o2)cc1`, for which the IC50 lay within 400 to 38000 nM.
On the same count and under the same terms, then `CCOC(=O)C1=C(Nc2cccc(F)c2)C[C@@H](c2ccc(Cl)cc2)N(c2cccc(F)c2)[C@@H]1c1ccc(Cl)cc1`, with 2300 to 29000 nM; and `CCOC(=O)C1=C(Nc2cccc(Br)c2)C[C@@H](c2ccc(Cl)cc2)N(c2cccc(Br)c2)[C@@H]1c1ccc(Cl)cc1`, with 2300 nM.
Still for that read-out and setting: in the case of `O=C(NNC(=S)Nc1cccc(F)c1)c1ccc(-c2nnc(-c3ccccc3Cl)o2)cc1` it was 400 to 38000 nM; in that of `Cc1ccc(NC(=S)NNC(=O)c2ccc(-c3nnc(-c4ccccc4Cl)o3)cc2)cc1`, 400 to 38000 nM; in that of `O=C(NNC(=S)Nc1ccc(Cl)cc1)c1ccc(-c2nnc(-c3ccccc3Cl)o2)cc1`, 400 to 38000 nM.
`COc1ccc(NC(=S)NNC(=O)c2ccc(-c3nnc(-c4ccccc4Cl)o3)cc2)cc1`: the half-inhibitory concentration (IC50) lay in the range of 400 to 38000 nM.
Compound `Cc1cccc(NC(=S)NNC(=O)c2ccc(-c3nnc(-c4ccccc4Cl)o3)cc2)c1` came in with an IC50 of 400 to 38000 nM.

The record behind these values is ChEMBL document CHEMBL4304757, “Synthetic heterocyclic candidates as promising α-glucosidase inhibitors: An overview” (Eur J Med Chem, 2019).
